Starred links: 1 amine or outer side, 2 acyl side, 3 side chain; linkers in the order of their positions; H or OH if unused. Positions of bridges follow the written chain, without caps; N, C: chain ends. Non-standard residues stand in square brackets, D forms with d. Residues, ends and D or L forms follow the SMILES beside them. *: point of attachment. hPhe(3-Cl-4-CF3) = N[C@@H](CCc1ccc(C(F)(F)F)c(Cl)c1)C(=O)O; X25 = CN([C@@H](Cc1ccc(C(F)F)cc1)C(=O)[*:2])[*:1]; X52 = CN([C@@H](Cc1ccc(C#N)nc1)C(=O)[*:2])[*:1]; NMePhe(4-Me) = CN[C@@H](Cc1ccc(C)cc1)C(=O)O; NMeAla(cPent) = CN[C@@H](CC1CCCC1)C(=O)O; NMeGly(cPent) = CN[C@H](C(=O)O)C1CCCC1; NMeCha = CN[C@@H](CC1CCCCC1)C(=O)O; NMeGly(cPr) = CN[C@H](C(=O)O)C1CC1; NMeChg = CN[C@H](C(=O)O)C1CCCCC1; NMeI = CC[C@H](C)[C@H](NC)C(=O)O; NMeD = CN[C@@H](CC(=O)O)C(=O)O; NMeL = CN[C@@H](CC(C)C)C(=O)O; NMeV = CN[C@H](C(=O)O)C(C)C; NMeA = CN[C@@H](C)C(=O)O; Piperidide = C1CCN(*)CC1; Pyrrolidide = C1CCN(*)C1; dNMeA = CN[C@H](C)C(=O)O; Ac5c = NC1(C(=O)O)CCCC1; Aze = O=C(O)[C@@H]1CCN1; Sar = CNCC(=O)O
How the values were obtained:
[1] = molecular target: T1, Kras and SOS1 (biotin-tagged human Kras loaded with GDP, His-tagged human SOS1) (Homo sapiens, UniProt P01116, G12D); assay: Protein-protein interaction inhibition between Kras and SOS1 (KrasGl2D-SOS PPI) using AlphaScreen; assay type: binding; conditions: AlphaScreen; biotin-tagged human Kras loaded with GDP, His-tagged human SOS1; read-out: KRAS G12D-SOS PPI IC50
T1 construct: made in house; host or cells: E. coli (stated for Kras only)
T1 sequence (P01116 1-188 isoform P01116-2 G12D): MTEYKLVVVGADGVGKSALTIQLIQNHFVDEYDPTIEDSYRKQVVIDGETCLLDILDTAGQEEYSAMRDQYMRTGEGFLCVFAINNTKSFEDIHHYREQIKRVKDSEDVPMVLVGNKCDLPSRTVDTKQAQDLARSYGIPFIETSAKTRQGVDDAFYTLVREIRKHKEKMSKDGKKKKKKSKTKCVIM
How it was run: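 Read-out is acceptor-bead light at 520-620 nm, arising when 680 nm-irradiated nickel donor beads pass singlet oxygen to streptavidin acceptors. The bead pair links His-tagged SOS1 with biotin-tagged, GDP-bound Kras from E. coli.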

[2] = test system: Human pancreatic cancer cell line AsPC-1; assay: Measurement of AsPC-1 cell growth inhibition (AsPC-1 CGI); assay type: cell-based; conditions: 96 h
How it was run: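 AsPC-1 cells in 15% FBS RPMI-1640 were exposed to test compound for 96 hours at 37° C, with CellTiter-Glo as endpoint.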

## CC[C@H](C)[C@@H]1NC(=O)[C@H](CC2CCCCC2)N(C)C(=O)C[C@@H](C(=O)N2CCCCC2)N(C)C(=O)[C@H](C(C)C)N(C)C(=O)C2(CCCC2)NC(=O)[C@@H]2CCCN2C(=O)[C@H](CCc2ccc(C(F)(F)F)c(Cl)c2)NC(=O)CN(C)C(=O)[C@H](CC2CCCCC2)N(C)C(=O)CN(C)C(=O)CN(C)C1=O [Compound 321] ([NMeCha]I[Sar][Sar][NMeCha][Sar][hPhe(3-Cl-4-CF3)]P[Ac5c][NMeV][NMeD]-Piperidide; lactam N-11)
[1]
  IC50: 11 nM
[2]
  IC50: 100 to 500 nM

## CC[C@H](C)[C@@H]1NC(=O)[C@H](CC(C)C)N(C)C(=O)C[C@@H](C(=O)N2CCCCC2)N(C)C(=O)[C@H](C2CCCCC2)N(C)C(=O)C2(CCCC2)NC(=O)[C@H](Cc2ccc(C#N)nc2)N(C)C(=O)[C@H](CCc2ccc(C(F)(F)F)c(Cl)c2)NC(=O)CN(C)C(=O)[C@H](CC2CCCCC2)N(C)C(=O)CN(C)C(=O)CN(C)C1=O [Compound 2169] ([NMeL]I[Sar][Sar][NMeCha][Sar][hPhe(3-Cl-4-CF3)][X52][Ac5c][NMeChg][NMeD]-Piperidide; lactam N-11)
[1]
  IC50: 6.1 nM
[2]
  IC50: > 500 nM

## CC[C@H](C)[C@@H]1NC(=O)[C@H](CC(C)C)N(C)C(=O)C[C@@H](C(=O)N(C)C)N(C)C(=O)[C@H]([C@@H](C)CC)N(C)C(=O)C2(CCCC2)NC(=O)[C@@H](C)N(C)C(=O)[C@H](CCc2ccc(C(F)(F)F)c(Cl)c2)NC(=O)CN(C)C(=O)[C@H](Cc2ccc(C)cc2)N(C)C(=O)[C@@H]2CCN2C(=O)[C@H](C)N(C)C1=O [Compound 288] ([NMeL]I[NMeA][Aze][NMePhe(4-Me)][Sar][hPhe(3-Cl-4-CF3)][dNMeA][Ac5c][NMeI][NMeD]-NMe2; lactam N-11)
[1]
  IC50: 1.7 nM
[2]
  IC50: 100 to 500 nM

## CC[C@H](C)[C@@H]1NC(=O)[C@H](CC(C)C)N(C)C(=O)C[C@@H](C(=O)N2CCCCC2)N(C)C(=O)[C@H](C2CCCC2)N(C)C(=O)C2(CCCC2)NC(=O)[C@@H]2CCCN2C(=O)[C@H](CCc2ccc(C(F)(F)F)c(Cl)c2)NC(=O)CN(C)C(=O)[C@H](CC2CCCCC2)N(C)C(=O)CN(C)C(=O)CN(C)C1=O [Compound 1073] ([NMeL]I[Sar][Sar][NMeCha][Sar][hPhe(3-Cl-4-CF3)]P[Ac5c][NMeGly(cPent)][NMeD]-Piperidide; lactam N-11)
[1]
  IC50: 2.1 nM
[2]
  IC50: 20 to 50 nM

## CC[C@H](C)[C@@H]1NC(=O)[C@H](CC(C)C)N(C)C(=O)C[C@@H](C(=O)N(C)C)N(C)C(=O)[C@H](C2CCCC2)N(C)C(=O)C2(CCCC2)NC(=O)[C@H](Cc2ccc(C(F)F)cc2)N(C)C(=O)[C@H](CCc2ccc(C(F)(F)F)c(Cl)c2)NC(=O)CN(C)C(=O)[C@H](CC2CCCCC2)N(C)C(=O)[C@@H]2CCN2C(=O)[C@H](C)N(C)C1=O [Compound 1926] ([NMeL]I[NMeA][Aze][NMeCha][Sar][hPhe(3-Cl-4-CF3)][X25][Ac5c][NMeGly(cPent)][NMeD]-NMe2; lactam N-11)
[1]
  IC50: 21 nM
[2]
  IC50: 100 to 500 nM

## CC[C@H](C)[C@@H]1NC(=O)[C@H](C2CC2)N(C)C(=O)C[C@@H](C(=O)N2CCCCC2)N(C)C(=O)[C@H](C2CCCCC2)N(C)C(=O)C2(CCCC2)NC(=O)[C@@H]2CCCN2C(=O)[C@H](CCc2ccc(C(F)(F)F)c(Cl)c2)NC(=O)CN(C)C(=O)[C@H](CC2CCCCC2)N(C)C(=O)CN(C)C(=O)CN(C)C1=O [Compound 1796] ([NMeGly(cPr)]I[Sar][Sar][NMeCha][Sar][hPhe(3-Cl-4-CF3)]P[Ac5c][NMeChg][NMeD]-Piperidide; lactam N-11)
[1]
  IC50: 0.76 nM
[2]
  IC50: 100 to 500 nM

## CC[C@H](C)[C@@H]1NC(=O)[C@H](CC(C)C)N(C)C(=O)C[C@@H](C(=O)N2CCCC2)N(C)C(=O)[C@H](C2CCCC2)N(C)C(=O)C2(CCCC2)NC(=O)[C@@H]2CCCN2C(=O)[C@H](CCc2ccc(C(F)(F)F)c(Cl)c2)NC(=O)CN(C)C(=O)[C@H](Cc2ccc(C)cc2)N(C)C(=O)[C@@H]2CCN2C(=O)[C@H](C)N(C)C1=O [Compound 1840] ([NMeL]I[NMeA][Aze][NMePhe(4-Me)][Sar][hPhe(3-Cl-4-CF3)]P[Ac5c][NMeGly(cPent)][NMeD]-Pyrrolidide; lactam N-11)
[1]
  IC50: 1.2 nM
[2]
  IC50: 20 to 50 nM

## CC[C@H](C)[C@@H]1NC(=O)[C@H](CC(C)C)N(C)C(=O)C[C@@H](C(=O)N2CCCCC2)N(C)C(=O)[C@H](C(C)C)N(C)C(=O)C2(CCCC2)NC(=O)[C@@H]2CCCN2C(=O)[C@H](CCc2ccc(C(F)(F)F)c(Cl)c2)NC(=O)CN(C)C(=O)[C@H](CC2CCCC2)N(C)C(=O)CN(C)C(=O)CN(C)C1=O [Compound 220] ([NMeL]I[Sar][Sar][NMeAla(cPent)][Sar][hPhe(3-Cl-4-CF3)]P[Ac5c][NMeV][NMeD]-Piperidide; lactam N-11)
[1]
  IC50: 3.1 nM
[2]
  IC50: 100 to 500 nM
